Experimental data as given in ChEMBL document CHEMBL5506031, “Design, Synthesis, Bioactive Evaluation, and Molecular Dynamics Simulation of Novel 4H-Pyrano[3,2-c]pyridine Analogues as Potential Sterol 14α-Demethylase (CYP51) Inhibitors” (J Med Chem, 2024).
Converted amounts (≈) assume the structure as drawn. The source made the active and inactive calls. The rule behind the calls is not given here.

Experiments:
Sclerotinia sclerotiorum = assay: Fungicidal activity against Sclerotinia sclerotiorum assessed as fungal inhibitory rate at 16 ug/ml relative to control; assay type: functional
Colletotrichum lagenaria = assay: Fungicidal activity against Colletotrichum lagenarium assessed as fungal inhibitory rate at 16 ug/ml relative to control; assay type: functional
Botrytis cinerea [1] = assay: Fungicidal activity against Botrytis cinerea assessed as fungal inhibitory rate at 16 ug/ml relative to control; assay type: functional
Penicillium digitatum = assay: Fungicidal activity against Penicillium digitatum assessed as fungal inhibitory rate at 16 ug/ml relative to control; assay type: functional
Fusarium oxysporum = assay: Fungicidal activity against Fusarium oxysporum assessed as fungal inhibitory rate at 16 ug/ml relative to control; assay type: functional
Botrytis cinerea [2] = assay: Fungicidal activity against Botrytis cinerea assessed as fungal growth reduction; assay type: functional, organism-based
[3] = Inhibition of Botrytis cinerea CYP51 by ELISA
Botrytis cinerea [4] = assay: Induction of morphological changes in Botrytis cinerea assessed as irregular mycelia at 0.5 ug/ml incubated for 6 days by SEM analysis; assay type: functional, organism-based; conditions: dose 0.5 µg/ml, time 6.0 day
Botrytis cinerea [5] = assay: Induction of morphological changes in Botrytis cinerea assessed as uneven mycelia at 0.5 ug/ml incubated for 6 days by SEM analysis; assay type: functional, organism-based; conditions: dose 0.5 µg/ml, time 6.0 day
Botrytis cinerea [6] = assay: Induction of morphological changes in Botrytis cinerea assessed as tangled mycelia at 0.5 ug/ml incubated for 6 days by SEM analysis; assay type: functional, organism-based; conditions: dose 0.5 µg/ml, time 6.0 day
Botrytis cinerea [7] = assay: Induction of morphological changes in Botrytis cinerea assessed as crinkly mycelia at 0.5 ug/ml incubated for 6 days by SEM analysis; assay type: functional, organism-based; conditions: dose 0.5 µg/ml, time 6.0 day
Botrytis cinerea [8] = assay: Induction of morphological changes in Botrytis cinerea assessed as thin cell wall at 0.5 ug/ml incubated for 6 days by TEM analysis; assay type: functional, organism-based; conditions: dose 0.5 µg/ml, time 6.0 day
Botrytis cinerea [9] = assay: Induction of morphological changes in Botrytis cinerea assessed as thin cell membrane at 0.5 ug/ml incubated for 6 days by TEM analysis; assay type: functional, organism-based; conditions: dose 0.5 µg/ml, time 6.0 day
Botrytis cinerea [10] = assay: Induction of morphological changes in Botrytis cinerea assessed as cracked cell structure at 0.5 ug/ml incubated for 6 days by TEM analysis; assay type: functional, organism-based; conditions: dose 0.5 µg/ml, time 6.0 day
Botrytis cinerea [11] = assay: Inhibition of Botrytis cinerea CYP51 by fluorescent quenching analysis; conditions: dose <= 16.0 µg/ml

SMILES | inhibition at 16 µg/mL (Sclerotinia sclerotiorum) [%] | inhibition at 16 µg/mL (Colletotrichum lagenaria) [%] | inhibition at 16 µg/mL (Botrytis cinerea [1]) [%] | inhibition at 16 µg/mL (Penicillium digitatum) [%] | inhibition at 16 µg/mL (Fusarium oxysporum) [%] | EC50 (Botrytis cinerea [2]) [µg/mL] | IC50 [3] [µg/mL] | Activity (Botrytis cinerea [4]) | Activity (Botrytis cinerea [5]) | Activity (Botrytis cinerea [6]) | Activity (Botrytis cinerea [7]) | Activity (Botrytis cinerea [8]) | Activity (Botrytis cinerea [9]) | Activity (Botrytis cinerea [10]) | inhibition (Botrytis cinerea [11])
COC(=O)C1=C(N)OC2=C(CN(C)C/C2=C\c2ccc(Br)s2)C1c1ccc(Br)s1 (configuration not stated) | 38.3 | 33.6 | 31.6 | 22.5 | 20.3 | – | – | – | – | – | – | – | – | – | –
COC(=O)C1=C(N)OC2=C(CN(C(=O)c3ccco3)C/C2=C\c2ccc(Cl)s2)C1c1ccc(Cl)s1 (configuration not stated) | – | 75.7 | 100 | 70 | 77.7 | 0.761 (≈ 1.39 µM) | 0.831 (≈ 1.51 µM) | – | – | – | – | – | – | – | –
COC(=O)C1=C(N)OC2=C(CN(C(=O)c3cccs3)C/C2=C\c2ccc(Br)s2)C1c1ccc(Br)s1 (configuration not stated) | 68.5 | 66.2 | 100 | 61 | 62.9 | 1.04 (≈ 1.59 µM) | 1.288 (≈ 1.97 µM) | – | – | – | – | – | – | – | –
Cc1ccc(/C=C2\CN(C(=O)c3cccs3)CC3=C2OC(N)=C(C#N)C3c2ccc(C)o2)o1 (configuration not stated) | 24.7 | 23.4 | 56.9 | 21.9 | 22.9 | – | – | – | – | – | – | – | – | – | –
N#CC1=C(N)OC2=C(CN(C(=O)c3cccs3)C/C2=C\c2ccco2)C1c1ccco1 (configuration not stated) | 58.5 | 57 | 100 | 51.7 | 52.7 | 1.34 (≈ 3.1 µM) | 1.649 (≈ 3.82 µM) | – | – | – | – | – | – | – | –
COC(=O)C1=C(N)OC2=C(CN(C(=O)c3ccco3)C/C2=C\c2ccco2)C1c1ccco1 (configuration not stated) | 85 | 86.8 | 100 | 78.4 | 87.1 | – | 0.377 (≈ 0.841 µM) | Active | Active | Active | Active | Active | Active | Active | Dose-Dependent Effect
Cc1ccc(/C=C2\CN(C(=O)c3ccco3)CC3=C2OC(N)=C(C#N)C3c2ccc(C)s2)s1 (configuration not stated) | – | 31.1 | 70.1 | 28.5 | 27.6 | – | – | – | – | – | – | – | – | – | –
CN1CC2=C(OC(N)=C(C#N)C2c2ccc(Br)o2)/C(=C/c2ccc(Br)o2)C1 (configuration not stated) | 87.2 | – | 72.8 | 78.2 | 52.2 | – | – | – | – | – | – | – | – | – | –
COC(=O)C1=C(N)OC2=C(CN(C)C/C2=C\c2cccs2)C1c1cccs1 (configuration not stated) | 57.2 | 51.8 | 38.8 | 34.2 | 25.8 | – | – | – | – | – | – | – | – | – | –
Cc1ccc(/C=C2\CN(C(=O)c3cccs3)CC3=C2OC(N)=C(C#N)C3c2ccc(C)s2)s1 (configuration not stated) | 21.1 | 20.5 | 51.8 | 20.1 | 20.3 | – | – | – | – | – | – | – | – | – | –
COC(=O)C1=C(N)OC2=C(CN(C(=O)c3ccco3)C/C2=C\c2ccc(Br)s2)C1c1ccc(Br)s1 (configuration not stated) | 71.6 | 69.3 | 100 | 64.3 | 67.5 | 0.976 (≈ 1.53 µM) | 1.138 (≈ 1.78 µM) | – | – | – | – | – | – | – | –
CN1CC2=C(OC(N)=C(C#N)C2c2ccc(Br)s2)/C(=C/c2ccc(Br)s2)C1 (configuration not stated) | 60.7 | 60.5 | 44.8 | 42.5 | 31.2 | – | – | – | – | – | – | – | – | – | –
N#CC1=C(N)OC2=C(CN(C(=O)c3cccs3)C/C2=C\c2ccc(Cl)s2)C1c1ccc(Cl)s1 (configuration not stated) | 50.8 | 48.7 | 92.9 | 44.8 | 43.5 | 2.25 (≈ 4.22 µM) | 2.625 (≈ 4.93 µM) | – | – | – | – | – | – | – | –
CN1CC2=C(OC(N)=C(C#N)C2c2cccs2)/C(=C/c2cccs2)C1 (configuration not stated) | 68.8 | 70.9 | 50.2 | – | 38.9 | – | – | – | – | – | – | – | – | – | –
COC(=O)C1=C(N)OC2=C(CN(C(=O)c3ccco3)C/C2=C\c2cccs2)C1c1cccs1 (configuration not stated) | 43.4 | 38.2 | 82.2 | 36.1 | 34 | – | – | – | – | – | – | – | – | – | –
COC(=O)C1=C(N)OC2=C(CN(C(=O)c3cccs3)C/C2=C\c2cccs2)C1c1cccs1 (configuration not stated) | 40.5 | 36.4 | 78.4 | 33.8 | 31.5 | – | – | – | – | – | – | – | – | – | –
N#CC1=C(N)OC2=C(CN(C(=O)c3ccco3)C/C2=C\c2ccc(Cl)s2)C1c1ccc(Cl)s1 (configuration not stated) | 53.5 | 52.5 | 94 | 47.1 | 46.6 | 2.07 (≈ 4.01 µM) | 2.333 (≈ 4.52 µM) | – | – | – | – | – | – | – | –
